Four molecules from ChEMBL document CHEMBL1201862, “PubChem BioAssay data set” (2004) can be followed below.

Among the test systems are COLO 205; M14; SK-MEL-28; U-251; MOLT-4; SK-MEL-2; T47D; HT-29; NCI-H226; 786-0; KM12; NCI/ADR-RES; EKVX; SF-268; HOP-92; OVCAR-8; LOX IMVI; HCC 2998.
Assay in all cases: DTP human tumour cell line panel, 48 h

One may read the GI50 as the concentration that inhibits growth by half.

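Method: 48-hour compound exposure of cells in 96-well plates, five concentrations, linear interpolation of endpoints. GI50 = concentration required for 50% inhibition of growth.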 Calls of active or inactive are those of the source. Rule as the data show it: active = GI50 up to about 1.1 µM and inactive = higher.

Take `C=C(CCOC)CCC1CCCCC(=C)[C@H]1O` (some centres undefined): the GI50 with COLO 205, with M14, in the assay on SK-MEL-28, in the assay with U-251, in the assay with MOLT-4 and with SK-MEL-2 was > 100 µM (inactive) throughout. Moreover, the GI50 in the assay with T47D, with HT-29, in the assay on NCI-H226, in the assay on 786-0, in the assay on KM12 and in the assay on NCI/ADR-RES was > 100 µM (inactive) each time. Moreover, the GI50 with EKVX, in the assay with SF-268, with HOP-92 and in the assay with OVCAR-8 was > 100 µM (inactive) in each case.

As to `CC1=C(O)C(=O)C2=C(C1=O)[C@@H]([C@@H](C)C/C=C/C(C)(C)O)CC[C@@H]2C`, the GI50 was > 100 µM (inactive) in the assay with COLO 205; 61 µM (inactive) in the assay on M14; 52.7 µM (inactive) in the assay on U-251; 35.9 µM (inactive) in the assay with MOLT-4; 39.5 µM (inactive) in the assay with SK-MEL-2; 27.2 µM (inactive) in the assay with T47D. Further, the GI50 was 69.3 µM (inactive) in the assay with HT-29; 74.5 µM (inactive) with NCI-H226; > 100 µM (inactive) in the assay with 786-0; 31.2 µM (inactive) in the assay with KM12; 77.1 µM (inactive) in the assay on NCI/ADR-RES; 30.7 µM (inactive) in the assay on SF-268. Also, the values for the GI50 in the assay with LOX IMVI and in the assay with OVCAR-8 were 29.6 µM (inactive) and 78.9 µM (inactive), respectively.

As for `CC1(C)N=C(N)N=C(N)N1c1ccc(OCC(=O)Nc2cccc(S(=O)(=O)F)c2)c(Cl)c1`, the GI50 with COLO 205 is 15.9 µM (inactive); in the assay on M14, 13.9 µM (inactive); in the assay on SK-MEL-28 it was > 70 µM (inactive); in the assay with U-251, 13.6 µM (inactive); in the assay with MOLT-4 it was 16.3 µM (inactive); with SK-MEL-2, > 100 µM (inactive). The GI50 in the assay on T47D is 27.2 µM (inactive); with HT-29, 5.16 µM (inactive); in the assay with HCC 2998, 19.1 µM (inactive); in the assay on NCI-H226 it was 1.8 µM (inactive); with 786-0, 4.9 µM (inactive); in the assay on KM12, 17.7 µM (inactive). Besides, the GI50 with NCI/ADR-RES is 59.6 µM (inactive); in the assay with SF-268 it was 4.78 µM (inactive); in the assay on LOX IMVI, 4.9 µM (inactive); in the assay on HOP-92 it was 2.25 µM (inactive); with OVCAR-8, 5.82 µM (inactive).

Turning to `CN1CCN(c2ccc3[nH]c(-c4ccc5[nH]c(-c6ccc(N(C)CCCl)cc6)nc5c4)nc3c2)CC1`, the GI50 in the assay with COLO 205 is 0.17 µM (active); in the assay on M14, 1.08 µM (active); in the assay with SK-MEL-28, 0.32 µM (active); in the assay on U-251, 0.0429 µM (active); in the assay with MOLT-4, 0.0127 µM (active); with SK-MEL-2, 0.22 µM (active). For the same molecule, the GI50 in the assay on T47D was 0.174 µM (active); in the assay with HT-29, 0.217 µM (active); in the assay on HCC 2998, 0.461 µM (active); in the assay with NCI-H226, 0.705 µM (active); in the assay on 786-0 it was 0.13 µM (active); in the assay on KM12, 0.811 µM (active). In addition, the GI50 in the assay on NCI/ADR-RES is 40.6 µM (inactive); in the assay with SF-268, 0.0622 µM (active); with LOX IMVI, 0.0311 µM (active); in the assay on HOP-92, 0.222 µM (active); in the assay with OVCAR-8, 0.247 µM (active).
